US10041937B2, “Macrophage identification agent, and identification method, sorting method, evaluation method, screening method and kit using the macrophage identifier agent” (CANON KABUSHIKI KAISHA, priority 2013, dated 2018)

Assays:
[1] = test system: M1 macrophages and M2 macrophages; test: Analysis of export inhibition of the identification agent by a test substance (FTC, MK-571, DIDS); format: cell-based, mouse
Protocol: Besides, Fumitremorgin C (manufactured by Sigma-Aldrich, hereinafter referred to as FTC) was added thereto, as a substance for inhibiting export of the compound (1) having been imported into cells, to a concentration of 10 μM, and the resultant was incubated at 37° C. for 30 minutes. Thereafter, the tube was centrifuged at 180 G for 10 minutes to remove the supernatant, and then, 1 mL of a HBSS buffer containing the FTC in a concentration of 10 μM was added thereto to suspend the cells, and the resultant was further incubated at 37° C. for 30 minutes.
Furthermore, each tube was centrifuged at 180 G for 10 minutes to remove the supernatant, the cells were suspended by adding the dye aqua for identifying dead cells thereto, and the resultant was incubated at 4° C. for 10 minutes. Thereafter, the tube was centrifuged at 180 G for 10 minutes to remove the supernatant, and then, the cells were suspended in a FACS buffer and analyzed by using a FACSCanto (trademark) II flow cytometry apparatus manufactured by BD.
The analysis was performed on a cell population showing a low signal for the aqua, so as to analyze a cell population from which dead cells were eliminated.
The analysis was performed in the same manner as in Example 57 except that the FTC was not added.
Thereafter, the tube was centrifuged at 180 G for 10 minutes to remove the supernatant, and then, 1 mL of a HBSS buffer containing the MK-571 in a concentration of 10 μM was added thereto to suspend the cells, and the resultant was further incubated at 37° C. for 30 minutes.
The analysis was performed in the same manner as in Example 79 except that the MK-571 was not added. […] The degree of the enhancement of the peak intensity caused by adding the MK-571 was evaluated by calculating the resolution R described above by using peak intensities in histograms prepared with and without adding the MK-571.
Thereafter, the tube was centrifuged at 180 G for 10 minutes to remove the supernatant, and then, 1 mL of a HBSS buffer containing the DIDS in a concentration of 10 μM was added thereto to suspend the cells, and the resultant was further incubated at 37° C. for 30 minutes.

[2] = test system: mixture of the M1 macrophages and the M2 macrophages; test: Sorting of subtypes from a mixture of M1 and M2 macrophages with an FACS apparatus; format: cell-based, mouse; details: compound 1 μM; for sorting of identified M1 and M2 macrophages: FACS apparatus; for subtype more strongly stained: mixed M1 and M2 macrophages
[3] = test system: M1 macrophages and M2 macrophages differentiated from THP-1 cells; test: Identification of macrophage subtypes differentiated from human cell line THP-1; format: cell-based; details: for subtype more strongly stained: THP-1 derived M1 and M2
Protocol: The fluorescent signals derived from the compounds (3), (4), (6), (7), (9), (11) to (13), (15), (17), (19) to (26), (28), (30) to (33), (35), (36), (38), (42) to (45), (48) to (62), (65), (67), (74) to (76), (82), (83) and (85) and the comparative compounds (1) and (2) were measured in channels suitable to the respective compounds. Histograms were prepared by plotting fluorescence intensities obtained in the respective channels on the abscissa and plotting the numbers of cells at each fluorescence intensity on the ordinate. A difference between a fluorescence intensity (FM1) at a peak top of the histogram of the M1 macrophage and a fluorescence intensity (FM2) at a peak top of the histogram of the M2 macrophage is divided by a sum of a peak width (WM1) of the histogram of the M1 macrophage and a peak width (WM2) of the histogram of the M2 macrophage, so as to obtain a resolution R, which was used as an index of the identification ability for a subtype (see the following expression (1)). Resolution R=|FM1−FM2|/(WM1+WM2) Expression (1)
Based on the thus obtained values of the resolution R, the identification abilities for the subtypes of the compounds (3), (4), (6), (7), (9), (11) to (13), (15), (17), (19) to (26), (28), (30) to (33), (35), (36), (38), (42) to (45), (48) to (62), (65), (67), (74) to (76), (82), (83) and (85) and the comparative compounds (1) and (2) were evaluated as any of A to C according to the following criteria, and if the resolution R was 0.15 or more, the compound was determined to be good in the subtype identification.
The subtypes were identified by using the compound (1) in the same manner as in Example 1 except that the macrophage subtypes differentiated from the mouse bone marrow cells were changed to macrophage subtypes differentiated from a cell line established from human acute monocytic leukemia.
The culture of subtypes was performed with reference to NPL 10. Specifically, THP-1 cells purchased from JCRB Cell Bank of National Institute of Biomedical Innovation, that is, a cell line established from human acute monocytic leukemia, were subcultured several times, and the resultant cells were dispersed to a concentration of 5.0×10^5/mL in an RPMI1640 containing 10% FBS and 1% P/S, and 5.0×10^6 cells were seeded in a 100 mm dish. The monocytes were differentiated into macrophages by incubating the resultant in the presence of 5% CO2 at 37° C. for 2 days with 500 ng of PMA added thereto. After exchanging the medium, by adding 200 ng of interferon-γ and 1 μg of polyliposaccharide (both manufactured by Pepro Tech) to the medium, the cells were differentiated to the subtype M1. Besides, by adding 200 ng of IL-4 and IL-13, the cells were differentiated to the subtype M2. After incubation performed in the presence of 5% CO2 at 37° C. for 24 hours, the resultant was rinsed with PBS, and PBS containing 0.25% trypsin and 1 mM EDTA (ethylenediaminetetraacetic acid) was used for collecting, from the dish, the macrophages having been differentiated to the subtypes M1 and M2.
Specifically, fluorescent signals derived from the compounds (1) (3) (4) (12) and (15) were measured by using the channels which are appropriate for each of the compounds and the identification abilities for the subtypes of the compounds were evaluated based on the values of the resolution R.

[4] = test system: M1 macrophages and M2 macrophages differentiated from mouse bone marrow cells; test: Subtype identification by staining and flow cytometry of M1 and M2 macrophages differentiated from mouse bone marrow cells; format: cell-based, Balb/c mouse; details: for subtype more strongly stained: two compounds used in combination, each 1 μM; for Selectivity: subtype strongly stained
In short: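 Balb/c mouse bone marrow cells were differentiated to macrophages with 50 ng/mL M-CSF over two 3–4-day periods, then polarized for 3 days to M1 (interferon-γ plus polyliposaccharide) or M2 (IL-4). Live cells (aqua dye-negative) were analysed by flow cytometry; resolution R = |FM1−FM2|/(WM1+WM2) from histogram peak positions and widths indexed subtype discrimination.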

[5] = M1 vs M2 macrophages from mouse bone marrow cells, general formula (11) dyes (Table 9)
[6] = class based on resolution R, general formula (11) dyes (Table 9)
[7] = mouse bone marrow-derived M1 macrophages, channel listed per compound, general formula (11) dyes (Table 9)
[8] = mouse bone marrow-derived M2 macrophages, channel listed per compound, general formula (11) dyes (Table 9)
[9] = M1 vs M2 macrophages from mouse bone marrow cells, general formula (6) dyes (Table 7)
[10] = M1 vs M2 macrophages from mouse bone marrow cells, general formula (10) dyes (Table 8)
[11] = class based on resolution R, general formula (6) dyes (Table 7)
[12] = class based on resolution R, general formula (10) dyes (Table 8)
[13] = fluorescence intensity at peak top of histogram, compound 1 μM, 37° C., 30 minutes
[14] = mouse bone marrow-derived M1 macrophages, channel listed per compound, general formula (6) dyes (Table 7)
[15] = mouse bone marrow-derived M1 macrophages, channel listed per compound, general formula (10) dyes (Table 8)
[16] = mouse bone marrow-derived M2 macrophages, channel listed per compound, general formula (6) dyes (Table 7)
[17] = mouse bone marrow-derived M2 macrophages, channel listed per compound, general formula (10) dyes (Table 8)

SMILES	sorting of identified M1 and M2 macrophages [2]	subtype more strongly stained [2]	subtype more strongly stained [3]	Resolution ratio R [4, 5]	Evaluation of macrophage subtype identification [4, 6]	Peak position of M1 macrophage [4, 7]	Peak position of M2 macrophage [4, 8]	subtype more strongly stained [4]	Resolution ratio R [4, 9]	Resolution ratio R [4, 10]	Evaluation of macrophage subtype identification [4, 11]	Evaluation of macrophage subtype identification [4, 12]	Peak position of M1 macrophage [4, 14]	Peak position of M1 macrophage [4, 15]	Peak position of M2 macrophage [4, 16]	Peak position of M2 macrophage [4, 17]	further results
CN(C)C(=O)CCSC(SCCC(=O)O)c1cccc(/C=C/c2ccc3ccc(Cl)cc3n2)c1 (stereo not shown) [MK-571]	–	–	–	–	–	–	–	–	–	–	–	–	–	–	–	–	degree of the enhancement of the peak intensity (resolution R with and without MK-571) ([1]; M1 macrophages, MK-571 10 μM, compound (113) 1 μM): 0.406; degree of the enhancement of the peak intensity (resolution R with and without MK-571) ([1]; M1 macrophages, MK-571 10 μM, compound (120) 1 μM): 0.739; degree of the enhancement of the peak intensity (resolution R with and without MK-571) ([1]; M2 macrophages, MK-571 10 μM, compound (113) 1 μM): 0.438; degree of the enhancement of the peak intensity (resolution R with and without MK-571) ([1]; M2 macrophages, MK-571 10 μM, compound (120) 1 μM): 0.730; enhancement of the fluorescence intensity caused by inhibition of export of the compound (113) ([1]; MK-571 10 μM, compound (113) 1 μM): observed in both the M1 macrophages and the M2 macrophages; enhancement of the fluorescence intensity caused by inhibition of export of the compound (120) ([1]; MK-571 10 μM, compound (120) 1 μM): observed in both the M1 macrophages and the M2 macrophages
O=S(=O)(O)c1cc(N=C=S)ccc1C=Cc1ccc(N=C=S)cc1S(=O)(=O)O [DIDS, 4,4′-diisothiocyanatostilbene-2,2′-disulfonic acid]	–	–	–	–	–	–	–	–	–	–	–	–	–	–	–	–	enhancement of the fluorescence intensity caused by inhibition of export of the compound (139) ([1]; DIDS 10 μM, compound (139) 1 μM): observed merely in the M1 macrophages
CCC1=C(C)C2=C(C)c3c(C)c(CC)c(C)n3[B-](F)(F)[N+]2=C1C [compound (139)]	could be each sorted with an FACS apparatus	staining the M1 macrophages more strongly than the M2 macrophages	the M1 macrophages were stained more strongly by the compound (139) than the M2 macrophages	1.023	A (The compound is very good in the subtype identification (namely, the resolution R is 0.5 or more))	220	47.8	the M1 macrophages show higher fluorescence intensity in the FITC channel than the M2 macrophages	–	–	–	–	–	–	–	–	–
CCC1=C(CC)c2cc3[nH]c(cc4nc(cc5[nH]c(cc1n2)c(CC)c5CC)C(CC)=C4CC)c(CC)c3CC [(1), reference compound]	–	–	–	0.006	C (the compound cannot identify the subtypes (namely, the resolution R is less than 0.15))	1.70	1.86	–	0.006	0.006	C (the compound cannot identify the subtypes (namely, the resolution R is less than 0.15))	C (the compound cannot identify the subtypes (namely, the resolution R is less than 0.15))	1.70	1.70	1.86	1.86	difference in the staining intensity between the M1 macrophages and the M2 macrophages / identification ([3]; THP-1 derived): no difference in the staining intensity; Resolution ratio R ([4]; R=|FM1−FM2|/(WM1+WM2), compound 1 μM): 0.006; Peak position of M1 macrophage [4, 13]: 1.70; Peak position of M2 macrophage [4, 13]: 1.86; difference in the staining intensity between the M1 macrophages and the M2 macrophages / identification ([4]; mouse bone marrow derived): no difference in the staining intensity; Evaluation of macrophage subtype identification ([4]; rated from resolution R): C (the compound cannot identify the subtypes (namely, the resolution R is less than 0.15)); Selectivity ([4]; general formula (6) dyes (Table 7)): No; Selectivity ([4]; general formula (10) dyes (Table 8)): No
CC1(C)C(/C=C/C=C/C=C/C=C2\N(CCCCS(=O)(=O)[O-])c3ccc4ccccc4c3C2(C)C)=[N+](CCCCS(=O)(=O)[O-])c2ccc3ccccc3c21.[Na+] [compound (86)]	could be each sorted with an FACS apparatus	stain the M2 macrophages more strongly than the M1 macrophages	–	–	–	–	–	–	0.602	–	A (The compound is very good in the subtype identification (namely, the resolution R is 0.5 or more))	–	2.27	–	6.37	–	–
CCN(CC)c1ccc2cc(-c3nc4cc(Cl)ccc4o3)c(=O)oc2c1 [compound (120)]	could be each sorted with an FACS apparatus	stain the M1 macrophages more strongly than the M2 macrophages	the M1 macrophages were stained more strongly by the compound (120) than the M2 macrophages	–	–	–	–	more strongly stain the M1 macrophages than the M2 macrophages	–	0.676	–	A (The compound is very good in the subtype identification (namely, the resolution R is 0.5 or more))	–	10.1	–	5.60	–
